# Assay results taken from patent US10501800B2, “Breast cancer prognosis” (Regents of the University of Minnesota, priority 2012, dated 2019).
# “Also recorded” adds a separate entry of the source.
# Tests used:
# [1] = system: PR target genes (CHN2, RGS2, ACOT6) in BT-474 human breast cancer cells; experiment: RT-qPCR of PR target genes in BT-474 cells, with or without MEK inhibitor; format: cell-based; conditions: R5020 10^−8 M plus RU486 10^−7 M, 6 h
# Procedure: For reverse transcription quantitative polymerase chain reaction (RT-qPCR) assays, 5×10^5 cells/well were plated in 6-well dishes, serum starved in modified IMEM for 1 day before treatments (see individual figures). RNA was extracted using TriPure reagent (Roche, catalog #11667157001) and cDNA was created using the Transcriptor cDNA first-strand cDNA synthesis kit (Roche, catalog #04897030001). Relative expression levels were determined by qPCR assays performed on a Roche LightCycler II using SYBR green master-mix (Roche, catalog #04887352001). Target gene quantification levels were normalized to the expression of standard housekeeper genes: TBP, ACTB, and/or GAPDH. For cells expressing inducible PR, the protocol was the same as above, except prior to ligand treatments, the cells were induced with AP21967 (10^−9 M) for 2 d.
# For experiments using MEK inhibitors, BT-474 cells were plated in […] dishes at 5×10^5 cells/well. One day later, the cells were washed and serum starved in modified IMEM for 1d. These cells were pre-treated with the MEK inhibitor U0126 (5 uM, EMD Chemicals, catalog #662005) for 30 min R5020 (10^−8 M) and/or RU486 (10^−7 M) was then added to cell culture wells for 6 h before RNA/protein isolation and RT-qPCR/western blotting was performed, as described above.
# breast cancer = conditions: in vivo; cited from earlier work
# [2] = system: PR target genes (MSX2, RGS2, MAP1A, PDK4) in MCF-7 cells; experiment: RT-qPCR of PR target genes in MCF-7 cells stably expressing WT or KR PR; format: cell-based, human; conditions: R5020 10^−8 M plus RU486 10^−7 M, 6 h
# BT-474 tumor = conditions: xenograft models; cited from earlier work
# [3] = system: PR target genes in T47D cells expressing WT PR, SUMO-deficient PR (KR) or empty vector; experiment: Gene expression profiling (Illumina HT-12v4) of T47D cell lines treated with progesterone or antiprogestins; format: cell-based, human
# Procedure: T47D cells stably expressing pIRES-neo3 empty vector, WT or KR PR were serum starved in modified IMEM (Gibco, catalog #A10488) for 1 day, treated with R5020 (10^−8 M) or vehicle control for 6 h before RNA extraction using a RNeasy kit (QIAgen, catalog #74104). Six h of progestin treatment allowed for substantial PR-dependent gene expression as compared to prior studies (Jacobsen et al., 2005; Richer et al., 2002). DNase I treated (QIAgen, catalog #79254) RNA samples from duplicate experiments were prepared for expression analysis using the Illumina HT-12v4 bead chip platform according to manufacture's protocols. Data were analyzed within R software using the Bioconductor (Gentleman et al., 2004) package called lumi where raw intensities were log2 transformed and quantile normalized. Differentially expressed genes were analyzed using the limma package, where empirical Bayes was used to better estimate the variance of the genes. Gene expression data presented contain log2 normalized intensities and biological comparisons presented (e.g. R5020/vehicle) contain log2 fold change with the Benjamini and Hochberg (BH) adjusted P value (Benjamini and Hochberg, 1995). To generate the heat map in FIG. 1C, unsupervised hierarchical clustering of genes was carried out using heatmap. 2 function in the R package gplots. Clustering was performed using Euclidean distance and complete linkage. Rows were scaled to have mean zero and standard deviation equal to one.
# Gene expression profiles in T47D cell lines treated with antiprogestins were obtained using identical methods as described above, except for these notable differences. After serum starvation, cells stably expressing empty vector, WT, or KR PR were treated for 6 hours under one of eight possible conditions: (1) ethanol (vehicle control), (2) progesterone (10^−8 M), (3) RU486 (10^−7 M), (4) aglepristone (10^−7 M), (5) onapristone (10^−7 M), (6) RU486 (10^−7 M) plus progesterone (10^−8 M), (7) aglepristone (10^−7 M) plus progesterone (10^−8 M), or (8) onapristone (10^−7 M) plus progesterone (10^−8 M). Gene expression levels were measured, normalized, analyzed, and heat maps were generated using the methods described above.
# Raw microarray data from two independent microarray experiments (both performed using the Illumina HT-12v4 platform described above) were combined and normalized together within R software using the Bioconductor (Gentleman et al., 2004) package called lumi where raw intensities were log 2 transformed and quantile normalized.
# Sample Sizes & Composition: For the first analysis, two KR cell replicates were used that had been stimulated with R5020 a synthetic progestin in the first experiment and three KR cell replicates that had been stimulated with progesterone in the second experiment. The same was accomplished regarding the corresponding WT cell replicates. Pertaining to the first analysis, therefore, a sample size of n=5 was used for each of the two groups (KR & WT). Regarding the second analysis, we used three KR cell replicates that had been co-treated with progesterone plus onapristone in the second experiment; and we used three WT cell replicates that had been co-treated with progesterone plus onapristone also in the second experiment (n=3 for each of the two groups). Regarding the third analysis, we used three KR cell replicates that had been co-treated with progesterone plus RU486 in the second experiment; and we used three WT cell replicates that had been co-treated with progesterone plus RU486 also in the second experiment (n=3 for each of the two groups). Regarding the fourth analysis, three KR cell replicates was used that had been co-treated with progesterone plus onapristone; and three WT cell replicates were used that had been treated with vehicle control (ethanol) (n=3 for each of the two groups). […]
# BT-474 cells = experiment: MTT proliferation assay in BT-474 cells; format: cell-based, human; conditions: MTT assays over six days in vitro; data not shown
# Procedure: Cell proliferation was measured using MTT assays (3-[4,5-dimethylthiazol-2-yl]-2,5-diphenyltetrazolium bromide, Sigma catalog #M2128). In 24-well plates, 1×10^4 cells/well were plated in cMEM (inducible PR expression was induced with AP21967 (10^−9 M) for 2 days), cells were washed and steroid starved in modified IMEM supplemented with 5% dextran-coated charcoal-treated (DCC) FBS for 1 day before the addition of R5020 (10^−8 M). At days 0, 2, 4, 6, cell proliferation was determined by adding 60 ul MTT (5 mg/ml) to each 0.5 ml cell culture well for 3 hours, medium was carefully removed and solublization solution (90% v/v DMSO/PBS) was added to lyse the cells. Lysate absorbance (650 and 570 nm) was measured using a plate reader. 650 nm measurements were subtracted from 570 nm measurements and sample means were normalized to day zero.
smiles,measurement,setting,value
"CC#C[C@]1(O)CC[C@H]2[C@@H]3CCC4=CC(=O)CCC4=C3[C@@H](c3ccc(N(C)C)cc3)C[C@@]21C [RU486, (10S,11S,14S,15S,17R)-17-[4-(dimethylamino)phenyl]-14-hydroxy-15-methyl-14-(prop-1-yn-1-yl)tetracyclo[8.7.0.0^ {2,7}.0^{11,15}]heptadeca-1,6-dien-5-one]","R5020-induced expression of CHN2, RGS2 and ACOT6",[1],entirely blocked
same,outcome of phase II clinical trials as a breast cancer treatment,breast cancer,unsuccessful
same,"R5020-induced mRNA expression of MSX2, RGS2, MAP1A and PDK4",[2],completely abolished
same,BT-474 tumor growth,BT-474 tumor,dramatically inhibits
same,expression of progesterone-regulated PR target genes,"[3]; T47D cells expressing SUMO-deficient PR (KR), antiprogestin 10^−7 M alone or plus progesterone 10^−8 M, 6 h",caused many PR target genes to become upregulated
same,number of genes significantly differentially expressed between KR and WT cells,[3]; both cell lines co-treated with progesterone plus the antiprogestin,7 genes
same,significant differential expression of the 15 biomarker genes between KR and WT cells,"[3]; both cell lines co-treated with progesterone plus the antiprogestin, with the exception of one gene (CDH10)",completely annulled
same,agonistic activity,[3]; cells expressing hyperactive / SUMO-deficient PR (KR),substantial agonistic activity; also recorded: agonistic properties
same,BT-474 cell proliferation,BT-474 cells,significantly blocks
